One data set addresses HIV-1 PR (Human immunodeficiency virus type 1 group M subtype B, UniProt P04585). The data set can be described thus: HIV-protease inhibitory activity assay (FRET peptide substrate). It is filed as biochemical. Particulars: Test Example 1. Put shortly: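 Compounds were preincubated with HIV-1 PR (0.83 ng) at room temperature in pH 4.8 NaAc buffer (0.5 M NaCl, EDTA, DTT, Tween 20), then HiLyte Fluor 488/QXL 520 FRET peptide (2 μmol/L final) was added for 60 min. Fluorescence was read at 485/535 nm, and IC50 was fitted by four-parameter logistic regression.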

The nature of data set [1]: Evaluation of total body clearance (CLtot), intravenous administration. Format: in vivo, Sprague-Dawley (SD). Particulars: rat (SD), intravenous administration 0.5-10 mg/kg; CLtot = dose/AUC. How it is done:
Dose: Intravenous administration with designated doses was selected. (Doses were changed depending on compounds.) • 0.5-10 mg/kg (n=2-3) Preparation of dosing formulation: The dosing solution was prepared by dissolving in an adequate solvent. Administration method: The dosing solution was injected into the tail vein by a syringe with a needle Blood sampling: The blood was collected at the scheduled time and obtained the plasma. Plasma concentrations of the compound were measured by LC/MS/MS. Statistical analysis: Area under the plasma concentration-time curve (AUC) of the compound was calculated by pharmacokinetic analysis software, WinNonlin™ and CLtot was calculated by dividing the dose by AUC.

A word on the IC50: it is the concentration that inhibits the measured activity by half. Lower therefore signals inhibition by little substance. The compound `CC(C)CN(CC(O)C(Cc1ccc(NCc2ccccc2-c2sc3c(c2C(=O)O)CC(C)(C)CC3)cc1)NC(=O)OC1COC2(C)OCCC12)S(=O)(=O)c1ccc2ncsc2c1` (stereo not shown) [Compound I-467] registered an IC50 on HIV-1 PR of 2.42 nM. Also, the rat_CLt in data set [1] came to 2.36 mL/min/kg.
The matching figures for `COc1ccc(S(=O)(=O)N(CC(C)C)CC(O)C(Cc2ccc(N(C)Cc3ccccc3-c3sc(N(C4CCCCC4)C4CCCCC4)nc3C(=O)O)cc2)NC(=O)OC2COC3(C)OCCC23)cc1` (stereo not shown) [Compound I-471]: 4.69 nM and 2.17 mL/min/kg.
On the same counts, the results for `COc1ccc(S(=O)(=O)N(CC(O)C(Cc2ccc(NCc3ccccc3-c3sc4c(c3C(=O)O)CC(C)(C)CC4)cc2)NC(=O)OC2COC3(C)OCCC23)CC(C)(C)C)cc1` (stereo not shown) [Compound I-473] are 2.71 nM and 1.22 mL/min/kg.
On the same counts, the results for `COc1ccc(S(=O)(=O)N(CC2CCC2)CC(O)C(Cc2ccc(NCc3ccccc3-c3sc4c(c3C(=O)O)CC(C)(C)CC4)cc2)NC(=O)OC2COC3(C)OCCC23)cc1` (stereo not shown) [Compound I-474] are 2.14 nM and 1.28 mL/min/kg.
For the compound `COc1ccc(S(=O)(=O)N(CCC(C)C)CC(O)C(Cc2ccc(NCc3ccccc3-c3sc4c(c3C(=O)O)CC(C)(C)CC4)cc2)NC(=O)OC2COC3(C)OCCC23)cc1` (stereo not shown) [Compound I-475], the IC50 against HIV-1 PR came out at 2.42 nM. Also, the rat_CLt in data set [1] was found to be 2.28 mL/min/kg.
On the same counts, the results for `COc1ccc(S(=O)(=O)N(CC(C)C)CC(O)C(Cc2ccc(NCc3cc(N4CCCC4)ccc3-c3sc4c(c3C(=O)O)CC(C)(C)CC4)cc2)NC(=O)OC2COC3(C)OCCC23)cc1` (stereo not shown) [Compound I-480] are 2.36 nM and 0.0997 mL/min/kg.
As for `COc1ccc(S(=O)(=O)N(CC(C)C)CC(O)C(Cc2ccc(NCc3ccc(C(=O)NCc4ccc(F)cc4)cc3-c3sc4c(c3C(=O)O)CC(C)(C)CC4)cc2)NC(=O)OC2COC3(C)OCCC23)cc1` (stereo not shown) [Compound I-481], the IC50 on HIV-1 PR was found to be 3.72 nM. Also, the rat_CLt in data set [1] stood at 3.29 mL/min/kg.
The matching figures for `COc1ccc(S(=O)(=O)N(CC2CCCC2)CC(O)C(Cc2ccc(NCc3ccccc3-c3sc4c(c3C(=O)O)CC(C)(C)CC4)cc2)NC(=O)OC2COC3(C)OCCC23)cc1` (stereo not shown) [Compound I-483]: 2.75 nM and 2.41 mL/min/kg.
The matching figures for `CC1(C)CCc2sc(-c3ccccc3CNc3ccc(CC(NC(=O)OC4COC5(C)OCCC45)C(O)CN(CC4CCCC4)S(=O)(=O)c4ccc5c(c4)OCO5)cc3)c(C(=O)O)c2C1` (stereo not shown) [Compound I-484]: 2.43 nM and 1.58 mL/min/kg.
On the same counts, the results for `COc1ccc(S(=O)(=O)N(CC(C)C)CC(O)C(Cc2ccc(NCc3cccc(C(F)(F)F)c3-c3sc4c(c3C(=O)O)CC(C)(C)CC4)cc2)NC(=O)OC2COC3(C)OCCC23)cc1` (stereo not shown) [Compound I-485] are 2.28 nM and 0.45 mL/min/kg.
Take `COc1ccc(S(=O)(=O)N(CC(C)C)CC(O)C(Cc2ccc(NCc3ccc4nc(-c5sc6c(c5C(=O)O)CC(C)(C)CC6)sc4c3)cc2)NC(=O)OC2COC3(C)OCCC23)cc1` (stereo not shown) [Compound I-487]: the IC50 on HIV-1 PR turned out to be 3.03 nM. Moreover, the rat_CLt in data set [1] is listed as 3.16 mL/min/kg.
The matching figures for `COc1ccc(S(=O)(=O)N(CC(C)C)CC(O)C(Cc2ccc(N(C)Cc3ccc(C)cc3-c3sc4c(c3C(=O)O)CC(C)(C)CC4)cc2)NC(=O)OC2COC3(C)OCCC23)cc1` (stereo not shown) [Compound I-488]: 2.2 nM and 0.501 mL/min/kg.
With `COc1ccc(S(=O)(=O)N(CC(C)C)CC(O)C(Cc2ccc(N(C)Cc3ccc(OC)cc3-c3sc4c(c3C(=O)O)CC(C)(C)CC4)cc2)NC(=O)OC2COC3(C)OCCC23)cc1` (stereo not shown) [Compound I-490], on HIV-1 PR, the IC50 was determined as 2.01 nM. Further, the rat_CLt in data set [1] is 0.88 mL/min/kg.
On the same counts, the results for `COc1ccc(S(=O)(=O)N(CC(C)C)CC(O)C(Cc2ccc(N(C)Cc3ccc(F)cc3-c3sc4c(c3C(=O)O)CC(C)(C)CC4)cc2)NC(=O)OC2COC3(C)OCCC23)cc1` (stereo not shown) [Compound I-491] are 1.92 nM and 3.32 mL/min/kg.
